Earlier results, collected in patent publication US20160038452A1, “Methods for Administering a Depot of Disulfiram” (priority 2014, published 2016).

How the values were obtained:
[1] = deep intramuscular injection, compared with patients on oral disulfiram

half-life of disulfiram in blood: 4 min
urinary levels of disulfiram metabolites [1]: insignificant
SMILES: CCN(CC)C(=S)SSC(=S)N(CC)CC [disulfiram]
